Patent publication US20250295790A1, “LECTIN-TARGETING CONJUGATES” (Helmholtz-Zentrum für Infektionsforschung GmbH, priority 2021, published 2025)
“Also recorded” adds a separate entry of the source. Where no end group is shown, it is not given here. [ ]: non-standard residue; d: D form. Nba = nitrobenzyl amine (quencher); 2Abz = Nc1ccccc1C(=O)O

What was measured:
[1] = Cleavage / stability in PA14-filtrate without human blood plasma; assay type: in vitro ADME, Pseudomonas aeruginosa PA14; conditions: up to 24 h
Method: (§1) P. aeruginosa PA14 was streaked on LB-agar plates (1% agar) from glycerol stocks and incubated at 37° C. overnight. 2-5 colonies were picked and dispersed in 10 mL LB (10 g/L trypton, 10 g/L NaCl, 5 g/L yeast extracts). This dispersion was incubated overnight at 37° C., 180 rpm under high humidity. The culture was centrifuged (4000 ref, room temperature, 10 min) and the supernatant was filtered (0.22 m pore size). […]
(§2) A 1 mM solution of the studied compound was prepared in PBS (150 mM NaCl, 2.6 mM KCl, 1.4 mM KH2PO4, 10 mM Na2HPO4, pH 7.4) with 20% DMSO. 50 μL of this solution was diluted in 950 μL matrix or human plasma (spiked with 10% LB) on ice. After brief vortex, 100 μL were immediately treated with 100 μL ice-cold MeCN (spiked with […] diphenhydramine as internal standard). The rest of the solution was incubated at 37° C. and 500 rpm in an eppendorf thermomixer. At various time points (30, 60, 120, 180 min), 100 L sample were taken and treated as described above. […] The AUC of the parent drug and its cleavage products and the internal standard was quantified using Compass QuantAnalysis quantification software. The relative AUC was calculated by AUC (compound)/AUC(ISTD). Procaine was used as a positive control as it readily degrades in human plasma.

LecA [2] = biological target: T1, LecA (Pseudomonas aeruginosa, UniProt Q05097); assay: Isothermal titration calorimetry with LecA; assay type: binding
T1 construct: made in house
T1 sequence (Q05097 whole entry): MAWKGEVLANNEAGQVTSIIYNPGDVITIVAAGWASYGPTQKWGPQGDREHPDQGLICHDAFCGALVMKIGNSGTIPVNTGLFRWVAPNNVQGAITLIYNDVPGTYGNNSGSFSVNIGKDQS
Method: Isothermal titration calorimetry was performed on an iTC200 (Malvern Panalytical) and the data were analyzed using Microcal Origin software (Malvern Panalytical). LecA in the cell was titrated with ligand in TBS/Ca^2+ buffer supplemented with 5% DMSO at 25° C. Steep titration slopes were the result of high amount of protein present and the high binding affinity of the ligand (high ‘value of c’).
Isothermal titration calorimetry was performed on an iTC200 (Malvern Panalytical) and the data were analyzed using Microcal Origin software (Malvern Panalytical).

LecA [3] = biological target: T1, LecA; assay: Direct titration of fluorescent ligand with LecA in fluorescence polarization assay; assay type: binding
LecA [4] = biological target: T1, LecA; assay: Surface plasmon resonance with LecA; assay type: binding
Method: Surface plasmon resonance experiments were performed on a BIACORE X100 instrument (GE Healthcare) at 25° C. as described by Zahorska et. al. 2020. Averages and standard deviations were calculated from three independent experiments.

[5] = Stability in aqueous buffer; assay type: physicochemical; conditions: Tris buffer (TBS/Ca2+), after 24 h
[6] = tested on: T2, LecA-targeted prodrug 36 (peptide-based prodrug with the linker Ala-Gly-Leu-Ala, SEQ ID NO 3, between a LecA-targeting galactoside and fluoroquinolone 2)
T2 sequence: AGLA

[7] = tested on: T3, LasB cleavable substrate Abz-Ala-Gly-Leu-Ala-Nba (SEQ ID NO 3, labelled)
T3 sequence: AGLA

MMP-2 = biological target: T4, MMP-2 (Homo sapiens, UniProt P08253); assay: FRET-based cleavage assay with MMP-2; assay type: biochemical; conditions: serial dilution of activated MMP-2
T4 sequence (P08253 110-660): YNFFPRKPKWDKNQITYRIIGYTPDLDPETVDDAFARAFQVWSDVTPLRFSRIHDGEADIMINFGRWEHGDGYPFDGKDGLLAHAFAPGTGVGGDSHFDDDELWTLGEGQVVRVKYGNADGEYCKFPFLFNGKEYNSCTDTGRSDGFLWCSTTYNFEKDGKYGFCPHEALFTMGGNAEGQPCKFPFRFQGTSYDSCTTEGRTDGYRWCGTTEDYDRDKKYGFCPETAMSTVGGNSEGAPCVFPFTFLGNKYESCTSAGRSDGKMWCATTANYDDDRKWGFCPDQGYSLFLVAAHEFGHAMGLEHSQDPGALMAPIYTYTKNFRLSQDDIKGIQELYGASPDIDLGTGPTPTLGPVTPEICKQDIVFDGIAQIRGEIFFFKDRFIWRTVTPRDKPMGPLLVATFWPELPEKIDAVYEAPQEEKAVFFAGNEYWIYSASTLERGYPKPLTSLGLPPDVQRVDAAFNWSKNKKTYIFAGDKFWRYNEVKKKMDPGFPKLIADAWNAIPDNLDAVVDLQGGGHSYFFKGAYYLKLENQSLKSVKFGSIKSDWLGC
Method: MMP-2 (50 μL, 0.2 μg/mL in 20 mM tris pH 7.5, 8 mM CaCl2, 119 mM NaCl, 20% Glycerol, 0.05% Brij 35, Cat #SAE0174-50UG, Sigma-Aldrich) was activated with 1 mM APMA (from 100 mM DMSO stock, Cat #AS—71158, AnaSpec) for 1 h at 37° C. Then, dilution series of the activated MMP-2 and of PA14-filtrate were prepared in PBS. SensoLyte 520 generic MMP substrate (Cat #AS—71158, AnaSpec) was diluted 1:100 in PBS. […] 10 μL dilution series was mixed with 10 μL MMP substrate or LasB substrate and fluorescence (λex=490 mn, λem=520 nm and λex=320 mn, λem=420 nm, for MMP substrate and LasB substrate, respectively) was recorded for 10 min (10 s interval).

[8] = Prodrug activation assay in human blood plasma spiked with P. aeruginosa PA14 culture supernatant; assay type: in vitro ADME, Pseudomonas aeruginosa PA14; conditions: 50% human blood plasma spiked with 10% P. aeruginosa culture supernatant, within 3 h
Method: In the prodrug activation assay, the bacterial strain Pseudomonas aeruginosa PA14 wt (DSM 19882) was used. The strain was obtained from the German Collection of Microorganisms and Cell Cultures (DSMZ).
as §1, §2

P. aeruginosa PA14 = assay: Antibiotic susceptibility (MIC assay, broth microdilution); assay type: cell-based, Pseudomonas aeruginosa PA14
Method: Bacterial strains were streaked on LB-agar plates (1% agar) from glycerol stocks and incubated at 37° C. overnight. Colonies were picked from plate and dispersed in fresh MiGler-Hinton broth II (MHB II) to yield an OD600 of 0.08-0.13. This dispersion was diluted 1:100 in fresh MHB II, which was then used for the assay to achieve a final inoculum of 5×10^5 CFU/mL. 50 μL inoculum was mixed with 50 μL of the serial dilution in the corresponding well of the 96-well plate.
The different matrices were prepared under sterile conditions: (i) 5 mL human plasma and 1 mL sterile filtrate from an P. aeruginosa PA14 overnight culture in LB were mixed with 4 mL PBS; (ii) 1 mL sterile filtrate from an P. aeruginosa PA14 overnight culture was diluted in 9 mL PBS; (iii) PBS only and (iv) 5 mL human plasma and 1 mL LB were mixed with 4 mL PBS. 6 L of each compound dilution series was diluted in 115 L matrix (˜-1:20 dilution) in a 96-well format at time point T=−3 h or T=−10 min.
The plates prepared at T=−3 h were sealed with gas-permeable foil and incubated at 37° C. in a humid incubator. The other plates were kept at room temperature. At T=0 h, 50 µL of each well was mixed with 50 μL incoculum (as described above) in double-concentrated MHBII in a sterile 96-well plate.
The plates were sealed with gas-permeable foil and incubated at 37° C. for 18-20 h in a humid incubator. Growth inhibition was assessed by visual inspection and given MIC values are the lowest concentration of antibiotic at which there was no visible growth.

LecB PA14 = LecB PA14 (Pseudomonas aeruginosa, UniProt A0A0H2ZE85); assay type: binding; conditions: target LecB PA14
Sequence of LecB PA14 (A0A0H2ZE85 entry or part of it): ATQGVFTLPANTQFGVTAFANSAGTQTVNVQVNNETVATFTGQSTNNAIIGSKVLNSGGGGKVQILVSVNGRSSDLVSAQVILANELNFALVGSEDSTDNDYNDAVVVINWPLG
Method: LecB (LecB PAO1 according to Hauck et al. and LecB PA14 according to Sommer et al.): A serial dilution of the test compounds was prepared in TBS/Ca, with 20% DMSO as cosolvent. A concentrated solution of LecB PAO1 or PA14 was diluted in TBS/Ca together with the fluorescent reporter ligand (N-(fluorescein-5-yl)-N′-(α-l-fucopyranosyl ethylen)-thiocarbamide) to yield concentrations of 300 nM and 20 nM, respectively. 10 μL of this mix was added to 10 μL serial dilutions of the test compounds in a black 384-well microtiter plates (Greiner Bio-One, Germany, cat. no. 781900) in triplicates. After centrifugation (2680 ref, 1 min, room temperature), the reactions were incubated for 4-8 h at room temperature in a humidity chamber. Fluorescence was measured and analysed as for LecA. Bottom and top plateaus were fixed according to the control compound in each assay (1-fucose) and the data was re-analysed with these values fixed. A minimum of three independent measurements on three plates was performed for each inhibitor.

[9] = Stability of conjugates in human blood plasma spiked with LB; assay type: in vitro ADME; conditions: 50% human blood plasma spiked with 10% LB, within three hours
Method: as §2

LecB PAO1 = LecB PAO1 (Pseudomonas aeruginosa, UniProt Q9HYN5); assay type: binding; conditions: target LecB PAO1
Sequence of LecB PAO1 (Q9HYN5 entry or part of it): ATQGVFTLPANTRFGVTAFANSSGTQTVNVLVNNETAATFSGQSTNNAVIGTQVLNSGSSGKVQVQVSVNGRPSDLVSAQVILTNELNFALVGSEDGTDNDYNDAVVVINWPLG
Method: LecB (LecB PAO1 according to Hauck et al. and LecB PA14 according to Sommer et al.): A serial dilution of the test compounds was prepared in TBS/Ca, with 20% DMSO as cosolvent. […] Fluorescence was measured and analysed as for LecA. Bottom and top plateaus were fixed according to the control compound in each assay (1-fucose) and the data was re-analysed with these values fixed. A minimum of three independent measurements on three plates was performed for each inhibitor.

[10] = calculated as Ki from IC50, read-out: Ki ± s.d.

CC(C)C[C@H](N)C(=O)N[C@@H](C)C(=O)N1CCN(c2cc3c(cc2F)c(=O)c(C(=O)O)cn3C2CC2)CC1 [Compound 19, Leu-Ala-ciprofloxacin-conjugate]
release of free drug from dipeptide-conjugates [1]: very slow; also recorded: only slowly released their antibiotic cargo

CC(C)C[C@H](N)C(=O)N[C@@H](C)C(=O)N[C@H]1CCN(c2cc3c(cc2F)c(=O)c(C(=O)O)cn3C2CC2)C1 [Compound 35, 7-((S)-3-((S)-2-((S)-2-amino-4-methylpentanamido)propanamido)pyrrolidin-1-vl)-1-cyclopropyl-6-fluoro-4-oxo-1,4-dihydroquinoline-3-carboxylic acid]
release of free drug from dipeptide-conjugates [1]: very slow; also recorded: only slowly released their antibiotic cargo

CC(C)C[C@H](NC(=O)CNC(=O)[C@H](C)NC(=O)CCCCCn1cc(CCN(Cc2ccc(NC(=O)CCc3ccc(O[C@@H]4OC(CO)[C@H](O)C(O)C4O)cc3)cc2)Cc2ccc(NC(=O)CCc3ccc(O[C@@H]4OC(CO)[C@H](O)C(O)C4O)cc3)cc2)nn1)C(=O)N[C@@H](C)C(=O)N[C@H]1CCN(c2cc3c(cc2F)c(=O)c(C(=O)O)cn3C2CC2)C1 (some centres unmarked) [Compound 68]
Kd (LecA [2]): 36 ± 48 nM

O=C(CCc1ccc(O[C@@H]2OC(CO)[C@H](O)C(O)C2O)cc1)Nc1ccc(CN(CCc2cn(CCOCCOCCOCCNC(=S)Nc3ccc4c(c3)C(=O)OC43c4ccc(O)cc4Oc4cc(O)ccc43)nn2)Cc2ccc(NC(=O)CCc3ccc(O[C@@H]4OC(CO)[C@H](O)C(O)C4O)cc3)cc2)cc1 (some centres unmarked) [Compound 57]
Kd (LecA [3]): 1050 nM | Kd (LecA [4]): 19.3 ± 10.5 nM | Kd (LecA [2]; ITC, TBS/Ca2+ buffer, 5% DMSO, 25° C.): High affinity | degradation in buffer [5]: did not show any degradation

matrix-metalloprotease 2 (MMP-2), activated with APMA
Stability of prodrug 36 in presence of activated MMP-2, monitored by HPLC-MS [6]: No detectable metabolism was observed after 20 min or 3 d at 37 °C | turnover of the LasB-substrate in a FRET-based cleavage assay (serial dilution of activated MMP-2) [7]: Only a very weak turnover of the LasB-substrate was observed in a FRET-based cleavage assay at very high concentrations (>50 ng/mL final) of MMP-2

Abz-Ala-Gly-Leu-Ala-Nba ([2Abz]AGLA-Nba) [LasB-substrate]
cleavage of FRET substrate by MMP-2 (MMP-2): rather stable; also recorded: very weak turnover

CC(C)C[C@H](NC(=O)CNC(=O)[C@H](C)NC(=O)c1ccc(S(=O)(=O)NC[C@H]2O[C@@H](C)[C@@H](O)[C@@H](O)[C@@H]2O)cc1)C(=O)N[C@@H](C)C(=O)N1CCN(c2cc3c(cc2F)c(=O)c(C(=O)O)cn3C2CC2)CC1 [Compound 25]
release of antibiotic cargo [8]: do not release ciprofloxacin; also recorded: degradation stopped at the stage of the secondary amide Ala-ciprofloxacin | MIC (P. aeruginosa PA14; Matrix 1: PBS, pre-incubation 3 h): >25 µM | MIC (P. aeruginosa PA14; Matrix 1: PBS, pre-incubation <10 min): >25 µM | MIC (P. aeruginosa PA14; Matrix 2: 50% human blood plasma + 10% P. aeruginosa culture supernatant in PBS, pre-incubation 3 h): ≥25 µM | MIC (P. aeruginosa PA14; Matrix 3: 10% P. aeruginosa culture supernatant in PBS, pre-incubation 3 h): ≥25 µM | MIC (P. aeruginosa PA14; Matrix 3: 10% P. aeruginosa culture supernatant in PBS, pre-incubation <10 min): ≥25 µM | MIC (P. aeruginosa PA14; Matrix 4: 50% human blood plasma + 10% LB in PBS, pre-incubation 3 h): ≥25 µM | MIC (P. aeruginosa PA14; Matrix 4: 50% human blood plasma + 10% LB in PBS, pre-incubation <10 min): ≥25 µM | IC50 (LecB PA14): 1000 ± 320 nM | Ki (LecB PA14; [10]): 360 ± 120 nM | release of antibiotic cargo [9]: no significant release of their antibiotic cargo | IC50 (LecB PAO1): 4630 ± 1990 nM | IC50 ± s.d. (LecB PAO1): one-digit micromolar range | Ki (LecB PAO1; [10]): 1920 ± 930 nM

C#CCCN(Cc1ccc(NC(=O)CCc2ccc(O[C@@H]3OC(CO)[C@H](O)C(O)C3O)cc2)cc1)Cc1ccc(NC(=O)CCc2ccc(O[C@@H]3OC(CO)[C@H](O)C(O)C3O)cc2)cc1 (some centres unmarked) [Compound 55]
Kd (LecA [4]): 9.9 ± 0.5 nM | Kd (LecA [2]): 47.2 ± 11.3 nM
